Test results published in patent publication US5137811A, “Method for diagnosing periodontal diseases with a substrate specific for aminopeptidase activity of periodontopathic bacteria” (Sunstar Kabushiki Kaisha, priority 1986, dated 1992).
Where a SMILES comes first, the peptide text is derived from it. The star is where a group is joined. βNA = c1ccc2cc(N*)ccc2c1; Cbz = O=C(OCc1ccccc1)*; Bz = O=C(c1ccccc1)*

Tests used:
[1] = test system: periodontopathic bacteria specific aminopeptidase activity; assay: Hydrolytic activity of gingival crevicular fluid specimens, OD525 (Experiment 6); type: biochemical
Protocol: (§1) Substrate compounds for aminopeptidase enzyme having various color developing groups derived from β-naphthylamine were dissolved in 0.1M Tris-HCl buffer (pH 7.0) at the concentration of 0.2 mM to obtain substrate solutions.
(§2) To the substrate solution (1.5 ml) was added the above cell suspension (0.3 ml) and reacted at 37° C. for 60 minutes. After completion of the reaction, a coloring reagent [prepared by dissolving diazonium salt of Garnet GBC in 1M acetate buffer (containing 10% Tween 20, pH: 4.2) at the concentration of 0.5 mg/ml] was added and, after 15 minutes, the absorption at 525 nm was determined with a spectrophotometer.
Specimens of gingival crevicular fluid were collected with paper points from five subjects who were considered to be healthy from their clinical state, six subjects with gingivitis and six subjects with periodontitis. Each specimen was dispersed in Ringer's solution (1.5 ml), and the relative amount of spirochete to total bacteria: [formula] was determined with a phase contrast microscope. Further, the Ringer's solution (0.3 ml) was tested for hydrolytic activity using the substrate solution prepared in the same manner as described in Experiment 1. As substrates, there were used compounds of the formula [1], i.e., N-benzoylvalyl-glycyl-arginine-β-naphthylamide (BzVGR) and N-carbobenzoxy-valyl-glycyl-arginine-β-naphthylamide (CxVGR) were used.
According to the same manner as described in Experiment 4, hydrolytic activity was tested by using the compounds of the formulas and [2], i.e., glycyl-proline-βnaphthylamide (GP), N-benzoyl-arginyl-glycyl-phenylalanylproline-β-naphthylamide (BzRGFP), N-carbobenzoxy-valylglycyl-arginine-β-naphthylamide (CxVGR) and N-benzoylglycyl-arginine-β-naphthylamide (BzGR) alone or in combination. Hydrolytic activity was determined by measuring absorption at 525 nm (OD525) and expressed as follows.

Capnocytophaga sp. = assay: Hydrolytic activity of oral anaerobe cell suspension on aminopeptidase substrates (Experiment 1); type: cell-based; settings: four strains, substrate 0.2 mM, pH 7.0, 37° C., 60 minutes, Table 1
How it was run: (§3)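 Treponema grown anaerobically in TYGVS (37 °C, 7 days) and other strains in brain heart infusion (37 °C, 48–72 h), then diluted to A660 1.0. Cells reacted 60 min at 37 °C with β-naphthylamine-derived substrates (0.2 mM solution, 0.1 M Tris-HCl pH 7.0). Garnet GBC coupling, A525 after 15 min; activity graded from mean released β-naphthylamine per strain.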

Bacteroides gingivalis = assay: as above; type: cell-based; settings: five strains, substrate 0.2 mM, pH 7.0, 37° C., 60 minutes, Table 1
How it was run: as §3

[2] = test system: Actinobacillus actinomycetemcomitans; assay: as above; type: cell-based; settings: four strains, substrate 0.2 mM, pH 7.0, 37° C., 60 minutes, Table 1
How it was run: as §3

Fusobacterium nucleatum [3] = assay: as above; type: cell-based; settings: three strains, substrate 0.2 mM, pH 7.0, 37° C., 60 minutes, Table 1
How it was run: as §3

Treponema denticola [4] = assay: as above; type: cell-based; settings: four strains, substrate 0.2 mM, pH 7.0, 37° C., 60 minutes, Table 1
How it was run: as §3

Actinomyces israelli [5] = assay: Hydrolytic activity of cell suspension, substrates alone or in combination (Experiment 3); type: cell-based; settings: two strains, Table 3
Protocol: (§4) The strains of Treponema were anaerobically cultivated using TYGVS media at 37° C. for 7 days, while other bacterial strains were cultivated using brain heart infusion broth at 37° C. for 48 to 72 hours. Each culture was diluted to obtain a bacterial cell suspension, the absorption at 660 nm of which was 1.0.
as §1, §2
(§5) On the basis of the average amount of released β-naphthylamine in each strain, the hydrolytic activity was expressed as follows: […]
(§6) According to the same manner as described in Experiment 1, periodontopathic bacteria specific aminopeptidase activity was tested by using four strains of Treponema denticola, five strains of B. gingivalis, four strains of Actinobacillus actinomycetemcomitans, two strains of Actinomyces israelli and three strains of Fusobacterium nucleatum. Abbreviations in Table 3 are the same as those in Tables 1 and 2. Hydrolytic activity "+++" means "40≤release amount<80 nmol/ml" and "++++" means "release amount≥80 nmol/ml".

[6] = test system: Actinobacillus actinomycetemcomitans; assay: as above; type: cell-based; settings: four strains, Table 3
Protocol: as §4, §1, §2, §5, §6

B. gingivalis [7] = assay: as above; type: cell-based; settings: five strains, Table 3
Protocol: as §4, §1, §2, §5, §6

Fusobacterium nucleatum [8] = assay: as above; type: cell-based; settings: three strains, Table 3
Protocol: as §4, §1, §2, §5, §6

Treponema denticola [9] = assay: as above; type: cell-based; settings: four strains, Table 3
Protocol: as §4, §1, §2, §5, §6

B. melaninogenicus = assay: Hydrolytic activity of cell suspension on aminopeptidase substrates (Experiment 2); type: cell-based; settings: two strains, Table 2
How it was run: (§7)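 A660 1.0 cell suspension + 0.2 mM β-naphthylamine-derived aminopeptidase substrate, 0.1M Tris-HCl pH 7.0, 37° C., 60 min. Garnet GBC (0.5 mg/ml, acetate pH 4.2, 10% Tween 20), 15 min, A525. Activity graded from mean β-naphthylamine released per strain.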

B. denticola = assay: as above; type: cell-based; settings: Table 2
How it was run: as §7

Actinomyces israelli [10] = assay: as above; type: cell-based; settings: two strains, Table 2
How it was run: as §7

[11] = test system: Actinobacillus actinomycetemcomitans; assay: as above; type: cell-based; settings: four strains, Table 2
How it was run: as §7

B. corporis = assay: as above; type: cell-based; settings: Table 2
How it was run: as §7

B. gingivalis [12] = assay: as above; type: cell-based; settings: five strains, Table 2
How it was run: as §7

B. intermedius = assay: as above; type: cell-based; settings: three strains, Table 2
How it was run: as §7

Fusobacterium nucleatum [13] = assay: as above; type: cell-based; settings: three strains, Table 2
How it was run: as §7

Treponema denticola [14] = assay: as above; type: cell-based; settings: four strains, Table 2
How it was run: as §7

[15] = Gingivitis subject 1 (spirochete 7.3 %)
[16] = Gingivitis subject 2 (spirochete 16.7 %)
[17] = Gingivitis subject 3 (spirochete 20.5 %)
[18] = Gingivitis subject 4 (spirochete 6.8 %)
[19] = Gingivitis subject 5 (spirochete 7.3 %)
[20] = Healthy subject 1 (spirochete 0.1 %)
[21] = Healthy subject 3 (spirochete 1.1 %)
[22] = Healthy subject 4 (spirochete 0.6 %)
[23] = Healthy subject 5 (spirochete 1.3 %)
[24] = Periodontitis subject 1 (spirochete 45.2 %)
[25] = Periodontitis subject 2 (spirochete 30.3 %)
[26] = Periodontitis subject 3 (spirochete 34.6 %)
[27] = Periodontitis subject 4 (spirochete 21.2 %)
[28] = Periodontitis subject 5 (spirochete 40.3 %)
[29] = Periodontitis subject 6 (spirochete 35.1 %)

| Structure (SMILES) | hydrolytic activity, absorption at 525 nm (OD525) [1, 15] | hydrolytic activity, absorption at 525 nm (OD525) [1, 16] | hydrolytic activity, absorption at 525 nm (OD525) [1, 17] | hydrolytic activity, absorption at 525 nm (OD525) [1, 18] | hydrolytic activity, absorption at 525 nm (OD525) [1, 19] | hydrolytic activity, absorption at 525 nm (OD525) [1, 20] | hydrolytic activity, absorption at 525 nm (OD525) [1, 21] | hydrolytic activity, absorption at 525 nm (OD525) [1, 22] | hydrolytic activity, absorption at 525 nm (OD525) [1, 23] | hydrolytic activity, absorption at 525 nm (OD525) [1, 24] | hydrolytic activity, absorption at 525 nm (OD525) [1, 25] | hydrolytic activity, absorption at 525 nm (OD525) [1, 26] | hydrolytic activity, absorption at 525 nm (OD525) [1, 27] | hydrolytic activity, absorption at 525 nm (OD525) [1, 28] | hydrolytic activity, absorption at 525 nm (OD525) [1, 29] | hydrolytic activity (release amount) (Actinomyces israelli [5]) | hydrolytic activity (release amount) [6] | hydrolytic activity (release amount) (B. gingivalis [7]) | hydrolytic activity (release amount) (Fusobacterium nucleatum [8]) | hydrolytic activity (release amount) (Treponema denticola [9]) | further results |
| --- | --- | --- | --- | --- | --- | --- | --- | --- | --- | --- | --- | --- | --- | --- | --- | --- | --- | --- | --- | --- | --- |
| N=C(N)NCCC[C@H](NC(=O)CNC(=O)c1ccccc1)C(=O)Nc1ccc2ccccc2c1 [BzGR, N-benzoyl-glycyl-arginine-β-naphthylamide] (Bz-Gly-Arg-βNA) | + (0.1≤OD525 <0.2) | + (0.1≤OD525 <0.2) | ++ (0.2≤OD525 <0.4) | - (OD525 <0.1) | - (OD525 <0.1) | - (OD525 <0.1) | - (OD525 <0.1) | - (OD525 <0.1) | - (OD525 <0.1) | ++ (0.2≤OD525 <0.4) | ++ (0.2≤OD525 <0.4) | ++ (0.2≤OD525 <0.4) | ++ (0.2≤OD525 <0.4) | ++ (0.2≤OD525 <0.4) | ++ (0.2≤OD525 <0.4) | - (release amount<5 nmol/ml) | - (release amount<5 nmol/ml) | +++ (40≤release amount<80 nmol/ml) | - (release amount<5 nmol/ml) | ++ (20 ≤release amount<40 nmol/ml) | hydrolytic activity (average amount of released β-naphthylamine) (Capnocytophaga sp.): - (release amount<5 nmol/ml); hydrolytic activity (average amount of released β-naphthylamine) (Bacteroides gingivalis): +++ (release amount≥40 nmol/ml); hydrolytic activity (average amount of released β-naphthylamine) [2]: - (release amount<5 nmol/ml); hydrolytic activity (average amount of released β-naphthylamine) (Fusobacterium nucleatum [3]): - (release amount<5 nmol/ml); hydrolytic activity (average amount of released β-naphthylamine) (Treponema denticola [4]): ++ (20 ≤release amount<40 nmol/ml) |
| NCCCC[C@H](NC(=O)OCc1ccccc1)C(=O)N1CCC[C@H]1C(=O)Nc1ccc2ccccc2c1 [CxKP, N-carbobenzoxy-lysyl-proline-β-naphthylamide] (Cbz-Lys-Pro-βNA) | – | – | – | – | – | – | – | – | – | – | – | – | – | – | – | - (release amount<5 nmol/ml) | - (release amount<5 nmol/ml) | ++ (20 ≤release amount<40 nmol/ml) | - (release amount<5 nmol/ml) | + (10 ≤release amount<20 nmol/ml) | hydrolytic activity (average amount of released β-naphthylamine) (B. melaninogenicus): ++ (20 ≤release amount<40 nmol/ml); hydrolytic activity (average amount of released β-naphthylamine) (B. denticola): ++ (20 ≤release amount<40 nmol/ml); hydrolytic activity (average amount of released β-naphthylamine) (Actinomyces israelli [10]): - (release amount<5 nmol/ml); hydrolytic activity (average amount of released β-naphthylamine) [11]: - (release amount<5 nmol/ml); hydrolytic activity (average amount of released β-naphthylamine) (B. corporis): ++ (20 ≤release amount<40 nmol/ml); hydrolytic activity (average amount of released β-naphthylamine) (B. gingivalis [12]): ++ (20 ≤release amount<40 nmol/ml); hydrolytic activity (average amount of released β-naphthylamine) (B. intermedius): ++ (20 ≤release amount<40 nmol/ml); hydrolytic activity (average amount of released β-naphthylamine) (Fusobacterium nucleatum [13]): - (release amount<5 nmol/ml); hydrolytic activity (average amount of released β-naphthylamine) (Treponema denticola [14]): + (10 ≤release amount<20 nmol/ml) |
| NCC(=O)N1CCC[C@H]1C(=O)Nc1ccc2ccccc2c1 [GP, glycyl-proline-β-naphthylamide] (H-Gly-Pro-βNA) | + (0.1≤OD525 <0.2) | + (0.1≤OD525 <0.2) | ++ (0.2≤OD525 <0.4) | - (OD525 <0.1) | - (OD525 <0.1) | - (OD525 <0.1) | - (OD525 <0.1) | - (OD525 <0.1) | - (OD525 <0.1) | +++ (0.4≤OD525 <0.8) | +++ (0.4≤OD525 <0.8) | +++ (0.4≤OD525 <0.8) | ++ (0.2≤OD525 <0.4) | +++ (0.4≤OD525 <0.8) | +++ (0.4≤OD525 <0.8) | - (release amount<5 nmol/ml) | - (release amount<5 nmol/ml) | +++ (40≤release amount<80 nmol/ml) | - (release amount<5 nmol/ml) | ++ (20 ≤release amount<40 nmol/ml) | hydrolytic activity (average amount of released β-naphthylamine) (B. melaninogenicus): ++ (20 ≤release amount<40 nmol/ml); hydrolytic activity (average amount of released β-naphthylamine) (B. denticola): - (release amount<5 nmol/ml); hydrolytic activity (average amount of released β-naphthylamine) (Actinomyces israelli [10]): - (release amount<5 nmol/ml); hydrolytic activity (average amount of released β-naphthylamine) [11]: - (release amount<5 nmol/ml); hydrolytic activity (average amount of released β-naphthylamine) (B. corporis): ++ (20 ≤release amount<40 nmol/ml); hydrolytic activity (average amount of released β-naphthylamine) (B. gingivalis [12]): +++ (release amount≥40 nmol/ml); hydrolytic activity (average amount of released β-naphthylamine) (B. intermedius): + (10 ≤release amount<20 nmol/ml); hydrolytic activity (average amount of released β-naphthylamine) (Fusobacterium nucleatum [13]): - (release amount<5 nmol/ml); hydrolytic activity (average amount of released β-naphthylamine) (Treponema denticola [14]): ++ (20 ≤release amount<40 nmol/ml); hydrolytic activity, absorption at 525 nm (OD525) ([1]; Gingivitis subject 6 (spirochete 14.4 %)): + (0.1≤OD525 <0.2) |
